Experiments:
human Factor XIa = human Factor XIa (Homo sapiens (Human), UniProt P03951); experiment: Factor XIa Assay (fluorogenic substrate GPR-AFC); type: biochemical; details: Factor XIa (FXIa)
Human plasma kallikrein = Human plasma kallikrein (Homo sapiens (Human), UniProt P03952); experiment: Kallikrein Assay (fluorogenic substrate Acetyl-K-P-R-AFC); type: biochemical; details: Plasma Kallikrein (PKal)
Procedure, shortened: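 Ki is derived from IC50 with the Cheng-Prusoff equation, and IC50 from the inflection point of a four-parameter logistic curve. The rate of AFC release is read with 0.5 nM purified enzyme and […] substrate at room temperature or 37 °C.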

human Factor XIa, sequence (P03951 388-625 limits assumed): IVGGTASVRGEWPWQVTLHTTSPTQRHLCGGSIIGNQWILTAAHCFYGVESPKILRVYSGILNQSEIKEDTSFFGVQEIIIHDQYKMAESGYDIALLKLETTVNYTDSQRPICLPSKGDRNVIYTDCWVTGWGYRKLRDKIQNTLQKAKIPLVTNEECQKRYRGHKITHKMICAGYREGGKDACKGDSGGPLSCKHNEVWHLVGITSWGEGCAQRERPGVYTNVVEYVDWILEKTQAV
human Factor XIa, sequence (P03951 19-387 partner limits assumed): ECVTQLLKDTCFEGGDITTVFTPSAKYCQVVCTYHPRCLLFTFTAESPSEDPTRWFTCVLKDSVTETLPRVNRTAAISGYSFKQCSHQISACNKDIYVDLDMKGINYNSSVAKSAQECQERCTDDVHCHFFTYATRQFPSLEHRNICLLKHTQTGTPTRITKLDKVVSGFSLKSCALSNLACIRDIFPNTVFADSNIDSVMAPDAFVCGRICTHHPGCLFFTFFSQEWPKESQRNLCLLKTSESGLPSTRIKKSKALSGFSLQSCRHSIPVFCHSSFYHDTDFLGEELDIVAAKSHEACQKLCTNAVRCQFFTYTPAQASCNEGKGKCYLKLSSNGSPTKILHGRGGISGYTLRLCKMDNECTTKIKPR
Human plasma kallikrein, sequence (P03952 391-638): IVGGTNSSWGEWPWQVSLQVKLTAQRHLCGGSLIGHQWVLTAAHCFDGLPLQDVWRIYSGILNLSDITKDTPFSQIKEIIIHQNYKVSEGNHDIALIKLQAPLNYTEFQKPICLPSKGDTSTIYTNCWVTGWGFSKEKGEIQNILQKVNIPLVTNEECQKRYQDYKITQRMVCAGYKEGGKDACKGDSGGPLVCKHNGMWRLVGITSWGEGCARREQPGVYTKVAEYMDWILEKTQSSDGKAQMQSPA
Human plasma kallikrein, sequence (P03952 20-390 partner): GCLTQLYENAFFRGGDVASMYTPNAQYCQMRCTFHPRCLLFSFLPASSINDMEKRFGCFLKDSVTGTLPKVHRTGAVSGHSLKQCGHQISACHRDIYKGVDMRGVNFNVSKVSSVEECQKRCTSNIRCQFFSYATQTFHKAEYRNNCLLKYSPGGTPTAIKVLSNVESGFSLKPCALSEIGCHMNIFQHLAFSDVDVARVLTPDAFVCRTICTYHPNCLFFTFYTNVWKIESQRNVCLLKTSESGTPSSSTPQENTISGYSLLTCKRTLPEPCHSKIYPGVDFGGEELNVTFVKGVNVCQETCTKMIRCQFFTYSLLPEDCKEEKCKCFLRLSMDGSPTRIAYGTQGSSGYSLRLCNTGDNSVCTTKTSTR

With `C[C@@H](c1cnc(N2C[C@H]3C[C@H]3C2=O)nc1)n1cc(NC(=O)c2nc(-c3c(C(F)F)ccc(Cl)c3F)cnc2C(O)C(F)(F)F)cn1` (single isomer, unassigned) [Example 177, 6-(3-Chloro-6-(difluoromethyl)-2-fluorophenyl)-N-(1-((S)-1-(2-((1R,5S)-2-oxo-3-azabicyclo[3.1.0]hexan-3-yl)pyrimidin-5-yl)ethyl)-1H-pyrazol-4-yl)-3-((R or S)-2,2,2-trifluoro-1-hydroxyethyl)pyrazine-2-carboxamide] the IC50 (human Factor XIa) was greater than 10 µM and the IC50 (Human plasma kallikrein) was 0.0478 µM.

`CCc1ncc(-c2c(C(F)F)ccc(Cl)c2F)nc1C(=O)Nc1cnn(C(C)c2cc(C)c(N3C[C@H]4C[C@H]4C3=O)nn2)c1` (single isomer, unassigned) [Example 238, 6-(3-Chloro-6-(difluoromethyl)-2-fluorophenyl)-3-ethyl-N-(1-((R or S)-1-(5-methyl-6-((1R,5S)-2-oxo-3-azabicyclo[3.1.0]hexan-3-yl)pyridazin-3-yl)ethyl)-1H-pyrazol-4-yl)pyrazine-2-carboxamide] was tested, and the IC50 (human Factor XIa) was 0.734 µM and the IC50 (Human plasma kallikrein) was 0.0063 µM.

Compound `CCc1ncc(-c2c(C(F)F)ccc(Cl)c2F)nc1C(=O)Nc1cnn(C(C)c2cnc(N3C[C@H]4C[C@H]4C3=O)c(C)c2)c1` (mixture of isomers) [Example 214, 6-(3-Chloro-6-(difluoromethyl)-2-fluorophenyl)-3-ethyl-N-(1-((S and R)-1-(5-methyl-6-((1R,5S)-2-oxo-3-azabicyclo[3.1.0]hexan-3-yl)pyridin-3-yl)ethyl)-1H-pyrazol-4-yl)pyrazine-2-carboxamide] has an IC50 (human Factor XIa) of 0.944 µM and an IC50 (Human plasma kallikrein) of 0.0012 µM.

Compound `Cc1cc([C@H](C)n2cc(NC(=O)c3cncc(-c4c(C(F)F)ccc(Cl)c4F)n3)cn2)nnc1N1C[C@H]2C[C@H]2C1=O` [Example 37, 6-(3-Chloro-6-(difluoromethyl)-2-fluorophenyl)-N-(1-((S)-1-(5-methyl-6-((1R,5S)-2-oxo-3-azabicyclo[3.1.0]hexan-3-yl)pyridazin-3-yl)ethyl)-1H-pyrazol-4-yl)pyrazine-2-carboxamide] has an IC50 (human Factor XIa) of 1.27 µM and an IC50 (Human plasma kallikrein) of 0.0012 µM.

`Cc1ncc(-c2c(C(F)F)ccc(Cl)c2F)nc1C(=O)Nc1cnn(C(C)c2cnc(N3CCC(O)C3=O)nc2)c1` (single isomer, unassigned) [Example 87, 6-(3-Chloro-6-(difluoromethyl)-2-fluorophenyl)-N-(1-((S or R)-1-(2-((R or S)-3-hydroxy-2-oxopyrrolidin-1-yl)pyrimidin-5-yl)ethyl)-1H-pyrazol-4-yl)-3-methylpyrazine-2-carboxamide] gave an IC50 (human Factor XIa) greater than 10 µM and an IC50 (Human plasma kallikrein) of 0.0262 µM.

For `Cc1c(C(C)n2cc(NC(=O)c3cncc(-c4c(C(F)F)ccc(Cl)c4F)n3)cn2)cnc(N2C[C@H]3C[C@H]3C2=O)c1C` (single isomer, unassigned) [Example 152, 6-(3-Chloro-6-(difluoromethyl)-2-fluorophenyl)-N-(1-((R or S)-1-(4,5-dimethyl-6-((1R,5S)-2-oxo-3-azabicyclo[3.1.0]hexan-3-yl)pyridin-3-yl)ethyl)-1H-pyrazol-4-yl)pyrazine-2-carboxamide], the IC50 (human Factor XIa) was 0.197 µM and the IC50 (Human plasma kallikrein) was 0.0003 µM.

Work on `CC(c1cnc(N2C[C@H]3C[C@H]3C2=O)c(F)c1)n1cc(NC(=O)c2nc(-c3c(C(F)F)ccc(Cl)c3F)cnc2COC(C)(C)C)cn1` (single isomer, unassigned) [Example 144, 3-(tert-Butoxymethyl)-6-(3-chloro-6-(difluoromethyl)-2-fluorophenyl)-N-(1-((R or S)-1-(5-fluoro-6-((1R,5S)-2-oxo-3-azabicyclo[3.1.0]hexan-3-yl)pyridin-3-yl)ethyl)-1H-pyrazol-4-yl)pyrazine-2-carboxamide] yielded an IC50 (human Factor XIa) greater than 10 µM and an IC50 (Human plasma kallikrein) of 0.0016 µM.

`Cc1ccc(Cl)c(F)c1-c1cncc(C(=O)Nc2cnn(C(C)c3cnc(N4C[C@H]5C[C@H]5C4=O)nc3C)c2)n1` (single isomer, unassigned) [Example 109, 6-(3 -Chloro-2-fluoro-6-methylphenyl)-N-(1-((R or S)-1-(4-methyl-2-((1R,5S)-2-oxo-3-azabicyclo[3.1.0]hexan-3-yl)pyrimidin-5-yl)ethyl)-1H-pyrazol-4-yl)pyrazine-2-carboxamide] showed an IC50 (human Factor XIa) of 1.92 µM and an IC50 (Human plasma kallikrein) of 0.0051 µM.

Reference: US20230286958A1, “PLASMA KALLIKREIN INHIBITORS” (Merck Sharp & Dohme LLC, priority 2020, published 2023)
